Measured values as given in patent publication US6531289B1, “Regulated gene expression in yeast and method of use” (Anadys Pharmaceuticals, Inc., priority 1997, dated 2003).

Legend:
CTY145 = conditions: CTY145, after 16 hours of growth
Experimental: (§1) For assaying the effects of copper ions on recombinant yeast strains, wild type and recombinant strains are grown in 5 ml of CSM media on a roller drum incubation apparatus at 30° C. for 18 to 20 hours. Cultures are diluted to an A600(absorbance of light at 600 nm) of about 0.02 in 5 ml CSM media without or with various concentrations of CuSO4 (10 μM, 50 μM, 100 μM, 250 μM, 1 mM and 2 mM) for 18 to 20 hours. The A600 of the various samples is read and recorded.
(§2) The copper sensitivity of yeast strain CTY145 was compared with that of ZMY60 by growing each strain in the presence of increasing amounts of added copper and measuring cell number at increasing times.

ZMY60 = conditions: ZMY60, after 16 hours of growth
Experimental: as §1, §2

ALG7 = conditions: Kukuruzinska et al. 1995; cited from earlier work
[1] = tested on: copper regulated CHS3 strain; test: Drug sensitivity profiling, 96 well copper sulfate x compound dilution plate; type: cell-based, S. cerevisiae; conditions: CHS3 copper regulated control, 48 hours at 37° C.
Experimental: (§3) In one embodiment, such drug sensitivity is analyzed utilizing the copper regulated strains of the invention according to the following non-limiting method. In a single 96 well assay plate, a serial dilution of copper sulfate is created from right to left. On the same plate a serial dilution of compound is created along the opposite axis to give the final compound and copper concentrations shown in FIG. 12. Each well is inoculated with 10^3 cells ml^−1. Growth is scored by eye after 48 hours incubation at 37° C. As the copper concentration is increased, the level of target expressed is reduced. Consequently, inhibition of growth should occur at a lower compound concentration (FIG. 13, panel a). […] (FIG. 13, panel c).
(§4) In a single 96 well assay plate, a serial dilution of copper sulfate was created from right to left. On the same plate a serial dilution of compound was created along the opposite axis to give the final compound and copper concentrations. Each well was inoculated with 10^3 cells/mL. Yeast cell growth was scored by eye after 48 hours incubation at 37° C.
(§5) Plates were setup as described above and inoculated with wild-type, copper regulated ALG7 and copper regulated CHS3 strains. CHS3 encodes chitin synthase and provides a second control. Following 48 hours incubation at 37° C., plates were examined to assess growth (FIG. 16).

wild-type strain = test: as above; type: cell-based, S. cerevisiae; conditions: wild type control, 48 hours at 37° C.
Experimental: as §3, §4, §5

[2] = tested on: copper regulated ALG7 strain; test: as above; type: cell-based, S. cerevisiae; conditions: ALG7 copper regulated cells, 48 hours at 37° C., growth scored by eye
Experimental: as §3, §4, §5

[3] = tested on: ALG7/alg7 heterozygous diploid S. cerevisiae strain; conditions: Giaever et al.; cited from earlier work

O=S(=O)([O-])[O-].[Cu+2] [copper, copper sulfate]
highest concentration of copper at which the growth rate was maintained (CTY145): 1 mM
highest concentration of copper at which the log-phase growth rate was maintained unaffected (ZMY60): 250 μM

tunicamycin
sensitivity to tunicamycin on downregulation of ALG7 expression (ALG7): hypersensitivity
sensitivity to compound as the copper concentration was increased [1]: No increase in sensitivity
sensitivity to compound as the copper concentration was increased (wild-type strain): No increase in sensitivity
sensitivity to compound as the copper concentration was increased [2]: increased sensitivity
sensitivity of ALG7/alg7 heterozygous diploid strain [3]: increased sensitivity
